Patent publication US8697869B2, “3-(heteroaryl-amino)-1,2,3,4-tetrahydro-9H-carbazole derivatives and their use as prostaglandin D2 receptor modulators” (Actelion Pharmaceuticals Ltd., priority 2010, dated 2014)

Assays:
hCRTH2 receptor [1] = biological target: T1, hCRTH2 receptor (Homo sapiens (Human), UniProt Q9Y5Y4); assay: hCRTH2 receptor membranes radioligand displacement assay (3H-PGD2); conditions: 3H-PGD2 2.5 nM, HEK293-hCRTH2 membranes, Binding-Buffer with 0.1% BSA
Procedure: Biological Assays: Preparation of hCRTH2 Receptor Membranes and Radioligand Displacement Assay:
(§1) First, recombinant HEK293-hCRTH2 cells were detached from culture plates into 5 ml buffer A/plate (Buffer A: 5 mM Tris, 1 mM MgCl2-6H2O pH=7.4) using a rubber policeman. Cells were then transferred into centrifugation tubes and centrifuged for 5 min at 400 g. The cell pellet was resuspended in the same buffer and tubes were frozen at −80° C. Cells were thawed and membrane fragments were generated by homogenization using a polytron homogenizer (30 seconds). The membrane fragments were then centrifuged at 3000 g for 20 minutes and resuspended in buffer C (Buffer C: 75 mM Tris, 25 mM MgCl2, 250 mM Saccharose pH 7.4). Aliquots of membrane fragements were stored at −20° C.
(§2) Binding assay was performed in a final assay volume of 250 μl. First, 25 μl of test compound, previously diluted in Binding-Buffer (Binding-Buffer: 50 mM Tris-Base, 100 mM NaCl, 1 mM EDTA, 0.1% BSA (protease free), 0.01% NaN3, 10 mM MnCl2 pH 7.0) was placed into each well. After addition of 75 μl Binding-Buffer, 50 μl of the radioligand ^3H-PGD2 (at 2.5 nM (220.000 dpm/well) from ANAWA ART0662) was added to each well. Binding assay was started by addition of 100 μl CRTH2 membrane fragments, reaching a final concentration of 20 μg/well. For non-specific binding, PGD2 was added to the reaction mixture to […] final concentration. This assay mix was incubated for 90 minutes at room temperature and then filtered through a GF/C filter 96-well plate which was pre-soaked for 3 hours in 0.5% polyethyleneimine (PEI). The filter-wells were washed three times with ice cold Binding-Buffer. Then, 40 μl of Microscint-40 (Packard) was added to each well and the retained radioactivity quantified in a Topcount (Packard).

hCRTH2 receptor [2] = biological target: T1, hCRTH2 receptor; assay: Radioligand displacement assay in presence of human serum albumin (HSA); conditions: 3H-PGD2 2.5 nM, Binding-Buffer with 0.5% HSA instead of 0.1% BSA
Procedure: as §1, §2
Radioligand Displacement Assay-Human Serum Albumin (HSA):
Radioligand displacement assay in presence of human serum albumin (HSA) was performed as described above, with following modifications. Binding-Buffer-HSA: Binding-buffer+0.5% Sigma Albumin from Human serum A1887 (instead of 0.1% BSA). A volume of 25 μl test compound, previously diluted in Binding-Buffer-HSA was placed into each well. After addition of 75 μl Binding-Buffer-HSA, 50 μl of ^3H-PGD2 (at 2.5 nM (220.000 dpm/well) from ANAWA ART0662) was added to each well. Remaining protocol was identical as described above.

T1 sequence (Q9Y5Y4 whole entry): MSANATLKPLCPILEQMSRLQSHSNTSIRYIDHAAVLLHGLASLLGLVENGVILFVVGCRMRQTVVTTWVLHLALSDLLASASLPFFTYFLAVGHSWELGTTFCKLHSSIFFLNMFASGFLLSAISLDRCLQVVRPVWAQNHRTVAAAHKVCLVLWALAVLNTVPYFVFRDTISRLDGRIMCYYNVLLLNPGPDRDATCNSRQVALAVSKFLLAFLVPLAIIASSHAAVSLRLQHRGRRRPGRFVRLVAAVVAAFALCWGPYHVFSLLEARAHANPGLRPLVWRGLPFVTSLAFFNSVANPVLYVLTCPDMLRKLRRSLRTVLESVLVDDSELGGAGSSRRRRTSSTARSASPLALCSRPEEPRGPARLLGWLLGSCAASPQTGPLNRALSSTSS

IC50 (hCRTH2 receptor [1])	IC50 (hCRTH2 receptor [2])	Structure (SMILES)
127 nM	–	Cc1nnc(N(C)C2CCc3c(c4cc(F)ccc4n3CC(=O)O)C2)s1 (stereo not drawn) [Example 50, 2-(6-fluoro-3-(methyl(5-methyl-1,3,4-thiadiazol-2-yl)amino)-3,4-dihydro-1H-carbazol-9(2H)-yl)acetic acid]
11 nM	176 nM	CN(c1cnc2ccccc2n1)[C@H]1CCc2c(c3cc(F)ccc3n2CC(=O)O)C1 [Example 44, (3S)-2-(6-fluoro-3-(methyl(quinoxalin-2-yl)amino)-3,4-dihydro-1H-carbazol-9(2H)-yl)acetic acid]
37 nM	–	CN(c1ccn(C)n1)C1CCc2c(c3cc(F)ccc3n2CC(=O)O)C1 (stereo not drawn) [Example 49, 2-(6-fluoro-3-(methyl(1-methyl-1H-pyrazol-3-yl)amino)-3,4-dihydro-1H-carbazol-9(2H)-yl)acetic acid]
27 nM	–	O=C(O)Cn1c2c(c3cc(F)ccc31)C[C@H](Nc1ncc(C(F)(F)F)cn1)CC2 [Example 5, (3R)-2-(6-fluoro-3-((5-(trifluoromethyl)pyrimidin-2-yl)amino)-3,4-dihydro-1H-carbazol-9-(2H)-yl)acetic acid]
27 nM	–	O=C(O)Cn1c2c(c3cc(F)ccc31)C[C@H](Nc1ncc(F)cn1)CC2 [Example 2, (3R)-2-(6-fluoro-3-((5-fluoropyrimidin-2-yl)amino)-3,4-dihydro-1H-carbazol-9-(2H)-yl)acetic acid]
9.1 nM	20 nM	CN(c1ccc(C(F)(F)F)cn1)[C@H]1CCc2c(c3cc(F)ccc3n2CC(=O)O)C1 [Example 35, (3S)-2-(6-fluoro-3-(methyl(5-(trifluoromethyl)pyridin-2-yl)amino)-3,4-dihydro-1H-carbazol-9(2H)-yl)acetic acid]
809 nM	–	CC(C)N(c1ncc(Cl)cn1)[C@H]1CCc2c(c3cc(F)ccc3n2CC(=O)O)C1 [Example 26, (3S)-2-(3-((5-chloropyrimidin-2-yl)(isopropyl)amino)-6-fluoro-3,4-dihydro-1H-carbazol-9(2H)-yl)acetic acid]
7.4 nM	58 nM	Cc1cc(N(C)C2CCc3c(c4cc(F)ccc4n3CC(=O)O)C2)no1 (stereo not drawn) [Example 52, 2-(6-fluoro-3-(methyl(5-methylisoxazol-3-yl)amino)-3,4-dihydro-1H-carbazol-9(2H)-yl)acetic acid]
72 nM	–	CN(c1cc(C(C)(C)C)on1)C1CCc2c(c3cc(F)ccc3n2CC(=O)O)C1 (stereo not drawn) [Example 48, 2-(3-((5-(tert-butyl)isoxazol-3-yl)(methyl)amino)-6-fluoro-3,4-dihydro-1H-carbazol-9(2H)-yl)acetic acid]
11 nM	41 nM	CN(c1ncc(-c2ccccc2)cn1)[C@H]1CCc2c(c3cc(F)ccc3n2CC(=O)O)C1 [Example 30, (3S)-2-(6-fluoro-3-(methyl(5-phenylpyrimidin-2-yl)amino)-3,4-dihydro-1H-carbazol-9(2H)-yl)acetic acid]
2 nM	3 nM	CN(c1ncc(Cl)cn1)C1CCc2c(c3cc(Cl)ccc3n2CC(=O)O)C1 (stereo not drawn) [Example 54, 2-(6-chloro-3-((5-chloropyrimidin-2-yl)(methyl)amino)-3,4-dihydro-1H-carbazol-9(2H)-yl)acetic acid]
73 nM	–	CN(c1nc(C(C)(C)C)cs1)C1CCc2c(c3cc(F)ccc3n2CC(=O)O)C1 (stereo not drawn) [Example 46, 2-(3-((4-(tert-butyl)thiazol-2-yl)(methyl)amino)-6-fluoro-3,4-dihydro-1H-carbazol-9(2H)-yl)acetic acid]
58 nM	–	CN(c1ncc(Cl)cn1)[C@@H]1CCc2c(c3cc(F)ccc3n2CC(=O)O)C1 [Example 10, (3R)-2-(3-((5-chloropyrimidin-2-yl)(methyl)amino)-6-fluoro-3,4-dihydro-1H-carbazol-9(2H)-yl)acetic acid]
3.5 nM	15 nM	CN(c1ncc(Cl)cn1)C1CCc2c(c3cc(C(F)(F)F)ccc3n2CC(=O)O)C1 (stereo not drawn) [Example 58, 2-(3-((5-chloropyrimidin-2-yl)(methyl)amino)-6-(trifluoromethyl)-3,4-dihydro-1H-carbazol-9(2H)-yl)acetic acid]
4.6 nM	56 nM	COc1ccc2c(c1)c1c(n2CC(=O)O)CCC(N(C)c2ncc(Cl)cn2)C1 (stereo not drawn) [Example 57, 2-(3-((5-chloropyrimidin-2-yl)(methyl)amino)-6-methoxy-3,4-dihydro-1H-carbazol-9(2H)-yl)acetic acid]
12 nM	769 nM	CN(c1nccc(C(F)(F)F)n1)[C@H]1CCc2c(c3cc(F)ccc3n2CC(=O)O)C1 [Example 13, (3S)-2-(6-fluoro-3-(methyl(4-(trifluoromethyl)pyrimidin-2-yl)amino)-3,4-dihydro-1H-carbazol-9(2H)-yl)acetic acid]
9.8 nM	8 nM	CN(c1ccc(F)cn1)[C@H]1CCc2c(c3cc(F)ccc3n2CC(=O)O)C1 [Example 36, (3S)-2-(6-fluoro-3-((5-fluoropyridin-2-yl)(methyl)amino)-3,4-dihydro-1H-carbazol-9(2H)-yl)acetic acid]
141 nM	–	CN(c1ncc(C(F)(F)F)cn1)[C@@H]1CCc2c(c3cc(F)ccc3n2CC(=O)O)C1 [Example 12, (3R)-2-(6-fluoro-3-(methyl(5-(trifluoromethyl)pyrimidin-2-yl)amino)-3,4-dihydro-1H-carbazol-9(2H)-yl)acetic acid]
5.1 nM	16 nM	CN(c1ncc(Cl)cn1)C1CCc2c(c3ccccc3n2CC(=O)O)C1 (stereo not drawn) [Example 53, 2-(3-((5-chloropyrimidin-2-yl)(methyl)amino)-3,4-dihydro-1H-carbazol-9(2H)-yl)acetic acid]
8.1 nM	40 nM	CN(c1nc2ccccc2s1)[C@H]1CCc2c(c3cc(F)ccc3n2CC(=O)O)C1 [Example 20, (3S)-2-(3-(benzo[d]thiazol-2-yl(methyl)amino)-6-fluoro-3,4-dihydro-1H-carbazol-9(2H)-yl)acetic acid]
5.2 nM	13 nM	CN(c1ccc(Cl)cn1)[C@H]1CCc2c(c3cc(F)ccc3n2CC(=O)O)C1 [Example 37, (3S)-2-(3-((5-chloropyridin-2-yl)(methyl)amino)-6-fluoro-3,4-dihydro-1H-carbazol-9(2H)-yl)acetic acid]
6.4 nM	53 nM	CN(c1ccon1)C1CCc2c(c3cc(F)ccc3n2CC(=O)O)C1 (stereo not drawn) [Example 51, 2-(6-fluoro-3-(isoxazol-3-yl(methyl)amino)-3,4-dihydro-1H-carbazol-9(2H)-yl)acetic acid]
67 nM	–	CN(c1nccc(C(F)(F)F)n1)[C@@H]1CCc2c(c3cc(F)ccc3n2CC(=O)O)C1 [Example 14, (3R)-2-(6-fluoro-3-(methyl(4-(trifluoromethyl)pyrimidin-2-yl)amino)-3,4-dihydro-1H-carbazol-9(2H)-yl)acetic acid]
107 nM	–	Cc1ccnc(N(C)[C@H]2CCc3c(c4cc(F)ccc4n3CC(=O)O)C2)n1 [Example 17, (3S)-2-(6-fluoro-3-(methyl(4-methylpyrimidin-2-yl)amino)-3,4-dihydro-1H-carbazol-9(2H)-yl)acetic acid]
42 nM	–	CN(c1ncc(F)cn1)[C@@H]1CCc2c(c3cc(F)ccc3n2CC(=O)O)C1 [Example 8, (3R)-2-(6-fluoro-3-((5-fluoropyrimidin-2-yl)(methyl)amino)-3,4-dihydro-1H-carbazol-9(2H)-yl)acetic acid]
55 nM	–	Cc1nc(N(C)[C@H]2CCc3c(c4cc(F)ccc4n3CC(=O)O)C2)c2ccccc2n1 [Example 23, (3S)-2-(6-fluoro-3-(methyl(2-methylquinazolin-4-yl)amino)-3,4-dihydro-1H-carbazol-9(2H)-yl)acetic acid]
125 nM	–	Cc1cc(C)nc(N(C)[C@H]2CCc3c(c4cc(F)ccc4n3CC(=O)O)C2)n1 [Example 16, (3S)-2-(3-((4,6-dimethylpyrimidin-2-yl)(methyl)amino)-6-fluoro-3,4-dihydro-1H-carbazol-9(2H)-yl)acetic acid]
46 nM	–	O=C(O)Cn1c2c(c3cc(F)ccc31)C[C@H](Nc1nccc(C(F)(F)F)n1)CC2 [Example 6, (3R)-2-(6-fluoro-3-((4-(trifluoromethyl)pyrimidin-2-yl)amino)-3,4-dihydro-1H-carbazol-9-(2H)-yl)acetic acid]
26 nM	–	CN(c1ncnc2ccccc12)[C@H]1CCc2c(c3cc(F)ccc3n2CC(=O)O)C1 [Example 21, (3S)-2-(6-fluoro-3-(methyl(quinazolin-4-yl)amino)-3,4-dihydro-1H-carbazol-9(2H)-yl)acetic acid]
